Experimental data: PubChem BioAssay AID1996
Converted amounts (≈) assume the structure as drawn.

Settings: buffer; pH 7.4; 200.0 µM
Work on CC(C)(C)S(=O)(=O)/C(C#N)=C/c1sccc1C1OCCO1 yielded a solubility kinetic of 35.4 µg/mL (≈ 108 µM). O=C(CCOc1ccccc1)Nc1ccc(Br)cc1 gave a solubility kinetic of under 0.7 µg/mL. For CNC(=O)/C(C#N)=C/c1cn(CC(=O)OC)c2ccccc12, the solubility kinetic was 7.8 µg/mL (≈ 26.2 µM). In the case of N#Cc1cccc(NC(=O)Cc2ccsc2)c1, the solubility kinetic is reported as 33.4 µg/mL (≈ 138 µM). In the case of O=C(COc1ccc(F)c(Cl)c1)Nc1ccc(N2CCOCC2)cc1, the solubility kinetic is reported as 5.4 µg/mL (≈ 14.8 µM). For COc1ccccc1N1CCN(C(=O)c2ccc(Br)o2)CC1, the solubility kinetic was over 54.8 µg/mL. Cc1cc(=O)oc2c(C(=O)c3ccccc3)c(OCC(N)=O)ccc12 gave a solubility kinetic of 5.6 µg/mL (≈ 16.6 µM). Work on Cc1ccc(NS(=O)(=O)Cc2ccccc2)cc1Cl yielded a solubility kinetic of 1.8 µg/mL (≈ 6.09 µM). Work on Cc1ccc(C)c(OCCn2ccnc2)c1 yielded a solubility kinetic of 24.7 µg/mL (≈ 114 µM). With O=C(O)c1ccccc1NS(=O)(=O)c1ccc2ccccc2c1 the solubility kinetic was over 49.1 µg/mL. In the case of CCOc1ccccc1CN1C2CCC1CC(c1ccc(C)cc1)C2 (centres undefined), the solubility kinetic is reported as 35 µg/mL (≈ 104 µM). In the case of Clc1ccccc1Nc1nc2ccccc2o1, the solubility kinetic is reported as 2.3 µg/mL (≈ 9.4 µM). Compound O=[N+]([O-])c1cccc(-c2csc(CS(=O)(=O)Cc3ccco3)n2)c1 has a solubility kinetic of 0.6 µg/mL (≈ 1.65 µM). Compound CC1=CC(C)(C)NC(=O)N1c1ccc(C)cc1 has a solubility kinetic of over 34.5 µg/mL. In the case of Cc1ccc(N2C(=O)C3C4C=CC(CC4)C3C2=O)c([N+](=O)[O-])c1 (centres undefined), the solubility kinetic is reported as 17.7 µg/mL (≈ 56.7 µM). Compound Cc1ccccc1NC(=O)OCc1ccccc1 has a solubility kinetic of 23.7 µg/mL (≈ 98.2 µM). Cc1ccn2cc(-c3ccc(Br)cc3)nc2c1 gave a solubility kinetic of 1.2 µg/mL (≈ 4.18 µM). Compound COC(=O)C(Cc1c[nH]c2ccccc12)NC(=O)c1cccs1 (centres undefined) has a solubility kinetic of over 49.3 µg/mL. With Cc1ccc(N2C(=O)c3ccccc3C2C(=O)c2ccc(C)c(C)c2O)cc1 (centres undefined) the solubility kinetic was 10.6 µg/mL (≈ 28.5 µM). In the case of COc1ccc2nc(COC(=O)c3cccs3)c(C(C)=O)[n+]([O-])c2c1, the solubility kinetic is reported as 1.6 µg/mL (≈ 4.46 µM). Work on Cc1ccc(C(=O)OCC(=O)Nc2cc(C(C)(C)C)no2)c(C)c1 yielded a solubility kinetic of 3.1 µg/mL (≈ 9.38 µM). With N#C/C(=C\C=C\c1ccccc1)C(=O)NCc1ccco1 the solubility kinetic was 6.3 µg/mL (≈ 22.6 µM). With CSc1ncccc1C(=O)OCC(=O)C(C)(C)C the solubility kinetic was 39.6 µg/mL (≈ 148 µM). COc1ccc(Cn2c(=S)[nH]c3ccccc32)cc1 gave a solubility kinetic of 1.2 µg/mL (≈ 4.44 µM). In the case of CC(NS(=O)(=O)c1cc(C(F)(F)F)ccc1Cl)C(=O)N(C)C1CCN(C)CC1 (centres undefined), the solubility kinetic is reported as over 66.3 µg/mL. Compound Br.CNc1nc2ccccc2n1CC(=O)c1ccccc1 has a solubility kinetic of over 51.9 µg/mL. For COc1ccc(OC)c(-n2c(SCC(=O)NCC3CCCO3)nc3ccccc3c2=O)c1 (centres undefined), the solubility kinetic was over 68.3 µg/mL. Compound COc1cccc(/C=C/C(=O)OCC(=O)NC2CCCCCCC2)c1 has a solubility kinetic of 6.7 µg/mL (≈ 19.4 µM). In the case of Br.Cc1ccc(C2=CSC3=NCCN23)cc1, the solubility kinetic is reported as 43.2 µg/mL. For C[C@H](NS(=O)(=O)c1ccccc1)C(=O)N1CCN(C(c2ccccc2)c2ccccc2)CC1, the solubility kinetic was 16.2 µg/mL (≈ 34.9 µM). Cc1onc(-c2ccccc2)c1C(=O)NC(C)CCc1ccccc1 (centres undefined) gave a solubility kinetic of 1.1 µg/mL (≈ 3.29 µM). With Cc1ccc(C(C)C)cc1OCC(=O)Nc1ccccc1N1CCCC1 the solubility kinetic was under 0.4 µg/mL. Compound O=c1[nH]cnc2sc3c(c12)CCCCC3 has a solubility kinetic of 19.9 µg/mL (≈ 90.3 µM). With CC(CC(=O)O)C(=O)c1ccc(Cl)c([N+](=O)[O-])c1 (centres undefined) the solubility kinetic was over 40.7 µg/mL. With CC(C)N1C(=O)C(O)(C2COC(C)(C)CC2=O)c2ccccc21 (centres undefined) the solubility kinetic was over 47.6 µg/mL. Cc1cc(=O)n(CC(=O)Nc2cc(Cl)ccc2C)c(C(C)C)n1 gave a solubility kinetic of 40.4 µg/mL (≈ 121 µM). With COc1ccc(C2SCC(=O)N2c2ccc(C)cc2)cc1 (centres undefined) the solubility kinetic was 37.5 µg/mL (≈ 125 µM). O=C(NC(=O)c1ccccc1Cl)Nc1ccc(-c2cnco2)cc1 gave a solubility kinetic of under 0.2 µg/mL. With COc1cccc(C(=O)NCCSCc2ccccc2Cl)c1 the solubility kinetic was 16 µg/mL (≈ 47.6 µM). With Nc1cccc(NC(=O)CN2CCOCC2)c1 the solubility kinetic was over 35.3 µg/mL. For CC(=O)Cc1cc2cc([N+](=O)[O-])ccc2oc1=O, the solubility kinetic was over 37.1 µg/mL. With CC(Sc1nnc(-c2ccco2)n1C)C(=O)NC1CCCC1 (centres undefined) the solubility kinetic was over 48.1 µg/mL. Compound CCOc1ccc(NC(=O)CN2C(=O)COc3ccccc32)cc1 has a solubility kinetic of 5.1 µg/mL (≈ 15.6 µM). In the case of CCOc1ccccc1C(=O)Nc1ccc(C(=O)c2ccccc2)cc1, the solubility kinetic is reported as under 0.7 µg/mL. Compound CCOc1ccc(-c2cn(-c3ccccc3OC)c(=S)[nH]2)cc1 has a solubility kinetic of 17.7 µg/mL (≈ 54.2 µM). O=C(O)Cc1ccc(NC(=O)Cc2ccc3ccccc3c2)cc1 gave a solubility kinetic of 3.7 µg/mL (≈ 11.6 µM). Work on O=C(/C=C/c1cccnc1)c1ccc(O)cc1 yielded a solubility kinetic of 28.5 µg/mL (≈ 127 µM). Compound O=C(NCCCN1CCOCC1)c1ccc(Cl)cc1[N+](=O)[O-] has a solubility kinetic of 49.1 µg/mL (≈ 150 µM). With Cc1c(C(=O)N2c3ccccc3CC2C)oc2ccccc12 (centres undefined) the solubility kinetic was 0.7 µg/mL (≈ 2.4 µM). CCOc1ccc2oc(C(=O)NCC3CCCO3)c(C)c2c1 (centres undefined) showed a solubility kinetic of 39.6 µg/mL (≈ 131 µM). Compound CCN(CC)CCNC(=O)C(Oc1ccccc1)Oc1ccccc1 has a solubility kinetic of 45.8 µg/mL (≈ 134 µM). Work on CC(=O)Nc1nc(-c2ccc3c(c2)OCO3)cs1 yielded a solubility kinetic of 8.5 µg/mL (≈ 32.4 µM). Compound CCOc1nc(-c2ccccc2)ncc1Oc1ccccc1 has a solubility kinetic of under 0.3 µg/mL. In the case of NC(=S)Nc1c(Cl)cccc1Cl, the solubility kinetic is reported as over 33.2 µg/mL. Cc1cccc(N2N=C(C(=O)OCC(=O)c3ccccc3)CCC2=O)c1 showed a solubility kinetic of over 52.6 µg/mL. For O=C(COC(=O)Cc1c(F)cccc1Cl)NCc1ccc2c(c1)OCO2, the solubility kinetic was 46.5 µg/mL (≈ 122 µM). Work on CCn1c(=NC(=O)COc2ccccc2)sc2cccc(F)c21 yielded a solubility kinetic of under 0.4 µg/mL. In the case of O=C(CN1C(=O)NC2(CCCCC2)C1=O)Nc1ccc(N2CCCCC2)cc1, the solubility kinetic is reported as 10.9 µg/mL (≈ 28.3 µM). Work on CC(=O)NCCc1nc2cc(NC(=O)c3cccs3)ccc2n1C yielded a solubility kinetic of over 51.4 µg/mL.
